For one compound, EC50 results are on record in patent US9988430B2, “Stable GLP-1 based GLP-1/glucagon receptor co-agonists” (Novo Nordisk A/S, priority 2014, dated 2018).

This experiment addresses T1, human glucagon receptor (Homo sapiens, UniProt P47871).
T1 construct: expressed in transfected cells; host or cells: membranes of BHK cells, clone BHK hGCGR A3*25
The experiment is described as follows: Assay (I)(b): glucagon receptor potency, CRE luciferase reporter gene assay in BHK cells. The note with it: BHK cells expressing human glucagon receptor, read-out: EC50 GlucagonR. It is filed as cell-based. Here is the method:
Assay (I): GLP-1 and Glucagon Receptor Potency The purpose of this example was to test the activity or potency, of the GLP-1 derivatives of the invention, in vitro. The in vitro potency is the measure of human GLP-1 receptor (GLP-1R) or glucagon receptor (glucagonR) activation, respectively, in a whole cell assay. In vitro potency was determined by measuring the cellular response of human GLP-1 or glucagon receptor activation, respectively, in a reporter gene assay. The assay was performed in a BHK cell line that stably expresses either the human GLP-1 receptor or the human glucagon receptor and comprises the DNA for the cAMP response element (CRE) coupled to a promoter and the gene for firefly luciferase (CRE luciferase). […] When assay incubation was completed, the luciferase substrate (luciferin) was added and the enzyme converted luciferin to oxyluciferin and produces bioluminescence. The luminescence was measured as the readout for the assay. […] The cells were counted and adjusted to 5×10EE3 cells/50 μl (1×10EE5 cells/ml) in Assay Medium. […] Each assay plate was read in a Perkin Elmer TopCount NXT instrument. […] EC50 values were calculated by the software and reported in pM.

Each structure is given as a SMILES string. *1 amine or outer side, *2 acyl side, *3 side chain or, on linkers, in order; H or OH if unused. Where a SMILES comes first, the peptide text is derived from it. Bridges are numbered along the chain shown (N, C = ends). Roman numbers before positions name the chains, in order. [ ]: non-standard residue; d: D form. The star is where a group is joined. C18 diacid = O=C(O)CCCCCCCCCCCCCCCCC(=O)*; γGlu = O=C(O)[C@H](CCC(=O)[*:2])N[*:1]; Desaminohistidyl = O=C(CCc1c[nH]cn1)*; Aib = CC(C)(N)C(=O)O

T1 sequence (P47871 26-477): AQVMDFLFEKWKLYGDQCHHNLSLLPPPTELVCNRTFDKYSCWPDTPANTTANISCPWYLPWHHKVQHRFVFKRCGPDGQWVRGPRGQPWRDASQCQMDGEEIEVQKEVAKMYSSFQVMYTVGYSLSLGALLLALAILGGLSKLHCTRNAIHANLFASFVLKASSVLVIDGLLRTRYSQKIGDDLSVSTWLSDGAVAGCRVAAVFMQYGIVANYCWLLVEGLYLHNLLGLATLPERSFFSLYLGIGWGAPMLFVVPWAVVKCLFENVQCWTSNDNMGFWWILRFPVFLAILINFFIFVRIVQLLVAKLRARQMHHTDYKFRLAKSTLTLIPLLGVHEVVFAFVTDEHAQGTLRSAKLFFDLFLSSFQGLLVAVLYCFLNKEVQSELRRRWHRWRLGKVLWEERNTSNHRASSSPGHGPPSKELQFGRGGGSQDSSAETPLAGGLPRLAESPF

One may read the EC50 as the concentration at which the effect is half-maximal. Turning to `CC[C@H](C)[C@H](NC(=O)[C@H](Cc1ccccc1)NC(=O)[C@H](CCC(=O)O)NC(=O)[C@H](CCCNC(=N)N)NC(=O)[C@H](C)NC(=O)[C@H](C)NC(=O)[C@H](CCC(N)=O)NC(=O)CNC(=O)[C@H](CCC(=O)O)NC(=O)[C@H](CC(C)C)NC(=O)[C@H](Cc1ccc(O)cc1)NC(=O)[C@H](CCCNC(=N)N)NC(=O)[C@H](CO)NC(=O)[C@@H](NC(=O)[C@H](CC(=O)O)NC(=O)[C@H](CO)NC(=O)[C@@H](NC(=O)[C@H](Cc1ccccc1)NC(=O)[C@@H](NC(=O)CNC(=O)[C@H](Cc1c[nH]cn1)NC(=O)C(C)(C)NC(=O)CCc1c[nH]cn1)[C@@H](C)O)[C@@H](C)O)C(C)C)C(=O)N[C@@H](C)C(=O)N[C@@H](Cc1c[nH]c2ccccc12)C(=O)N[C@@H](CC(C)C)C(=O)N[C@@H](CC(C)C)C(=O)N[C@@H](CCCCNC(=O)CNC(=O)[C@H](CO)NC(=O)[C@H](CCC(=O)O)NC(=O)CNC(=O)[C@H](CO)NC(=O)CC[C@H](NC(=O)CC[C@H](NC(=O)CCCCCCCCCCCCCCCCC(=O)O)C(=O)O)C(=O)O)C(=O)N[C@H](C(N)=O)[C@@H](C)O` [Example 8, N^ε34-[2-[[(2S)-2-[[(2S)-4-carboxy-2-[[2-[[(2S)-2-[[(4S)-4-carboxy-4-[[(4S)-4-carboxy-4-(17-carboxyheptadecanoylamino)butanoyl]amino]butanoyl]amino]-3-hydroxypropanoyl]amino]acetyl]amino]butanoyl]amino]-3-hydroxypropanoyl]amino]acetyl]-[Imp7,Aib8,His9,Arg18,Arg26,Leu33,Thr35]-GLP-1-(7-35)-peptide amide] (I: Desaminohistidyl-[Aib]HGTFTSDVSRYLEGQAAREFIAWLLKT-NH2 / II: {C18 diacid-γGlu-γGlu}-SGESG; amide I:27-II:C), the EC50 was 0.143 nM.
